Patent publication US8466193B2, “Selective inhibitors of histone deacetylase” (Pharmacyclics, Inc., priority 2008, dated 2013)

Tests used:
[1] = system: Jurkat cells; experiment: Cell proliferation assay, growth inhibition by Alamar Blue; type: cell-based; details: Homo sapiens, 72 h, Jurkat cells treated with compound for 3 days
Experimental: Cell lines were obtained from DSMZ (Braunschweig, Germany) or ATCC (Manassas, Va.). Cells were grown in RPMI 1640 with 10% fetal bovine serum in a 5% CO2/air incubator at 37° C. Thapsigargin and BAPTA-AM were from Calbiochem (San Diego, Calif.). 3-((dimethylamino)methyl)-N-(2-(4-(hydroxycarbamoyl)phenoxy)ethyl)benzofuran-2-carboxamide is a broad-spectrum HDAC inhibitor which was synthesized as previously described. Other analogs with varying degrees of specificity towards the HDAC isoforms were synthesized as described herein.
Tumor cell lines and human umbilical vein endothelial cells (HUVEC) were cultured for at least two doubling times, and growth was monitored at the end of compound exposure using an Alamar Blue™ (Biosource, Camarillo, Calif.) fluorometric cell proliferation assay as recommended by the manufacturer. Compounds were assayed in triplicate wells in 96-well plates. The concentration required to inhibit cell growth by 50% (GI50) and 95% confidence intervals were estimated from nonlinear regression using a 4-parameter logistic equation. The effect of HDAC8 selective inhibitor compounds on cell proliferation in Jurkat cells was measured. Apoptosis was measured by Annexin-V flow cytommetry. Growth inhibition was measured by Alamar Blue assay. Cells were treated with compound for 3 days.

[2] = biological target: T1, HDAC8 (Homo sapiens, UniProt Q9BY41); experiment: Histone deacetylase activity, continuous trypsin-coupled assay; type: biochemical; details: 15 minutes preincubation; substrate acetyl-Gly-Ala-(N-acetyl-Lys)-AMC
T1 sequence (Q9BY41 1-377): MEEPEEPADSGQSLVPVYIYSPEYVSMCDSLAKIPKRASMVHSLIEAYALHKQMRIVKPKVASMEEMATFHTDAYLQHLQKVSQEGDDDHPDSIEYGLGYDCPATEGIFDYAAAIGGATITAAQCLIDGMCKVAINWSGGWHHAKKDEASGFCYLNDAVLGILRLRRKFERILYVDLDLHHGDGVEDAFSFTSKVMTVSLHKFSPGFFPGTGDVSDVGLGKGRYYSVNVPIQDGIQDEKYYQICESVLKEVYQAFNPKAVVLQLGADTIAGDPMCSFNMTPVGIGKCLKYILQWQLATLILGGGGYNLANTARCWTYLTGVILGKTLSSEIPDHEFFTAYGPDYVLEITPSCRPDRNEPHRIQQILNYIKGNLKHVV
Experimental: (§1) HDAC activity was measured using a continuous trypsin-coupled assay that has been described in detail previously (US 20070281934; Schultz et. al., Biochemistry, 43 (34), 11083-11091, 2004; Kim et al. (2006), Methods Mol. Biol., 325:273-283). For inhibitor characterization, measurements were performed in a reaction volume of 100 μL using 96-well assay plates in a fluorescence plate reader. For each isozyme, the HDAC protein in reaction buffer (50 mM HEPES, 100 mM KCl, 0.001% Tween-20, 5% DMSO, pH 7.4, supplemented with bovine serum albumin at concentrations of 0-0.05%, was mixed with inhibitor at various concentrations and allowed to incubate for 15 minutes. Trypsin was added to a final concentration of 50 nM, and acetyl-Gly-Ala-(N-acetyl-Lys)-AMC was added to a final concentration of 25-100 μM to initiate the reaction. After a 30 minute lag time, the fluorescence was measured over a 30 minute time frame using an excitation wavelength of 355 nm and a detection wavelength of 460 nm. The increase in fluorescence with time was used as the measure of the reaction rate. Inhibition constants Ki(app) were obtained using the program BatchKi (Biokin, Pullman, Wash.).

[3] = biological target: T2, HDAC6 (Homo sapiens, UniProt Q9UBN7); experiment: as above; type: biochemical; details: 15 minutes preincubation; substrate acetyl-Gly-Ala-(N-acetyl-Lys)-AMC
T2 sequence (Q9UBN7 1-1215): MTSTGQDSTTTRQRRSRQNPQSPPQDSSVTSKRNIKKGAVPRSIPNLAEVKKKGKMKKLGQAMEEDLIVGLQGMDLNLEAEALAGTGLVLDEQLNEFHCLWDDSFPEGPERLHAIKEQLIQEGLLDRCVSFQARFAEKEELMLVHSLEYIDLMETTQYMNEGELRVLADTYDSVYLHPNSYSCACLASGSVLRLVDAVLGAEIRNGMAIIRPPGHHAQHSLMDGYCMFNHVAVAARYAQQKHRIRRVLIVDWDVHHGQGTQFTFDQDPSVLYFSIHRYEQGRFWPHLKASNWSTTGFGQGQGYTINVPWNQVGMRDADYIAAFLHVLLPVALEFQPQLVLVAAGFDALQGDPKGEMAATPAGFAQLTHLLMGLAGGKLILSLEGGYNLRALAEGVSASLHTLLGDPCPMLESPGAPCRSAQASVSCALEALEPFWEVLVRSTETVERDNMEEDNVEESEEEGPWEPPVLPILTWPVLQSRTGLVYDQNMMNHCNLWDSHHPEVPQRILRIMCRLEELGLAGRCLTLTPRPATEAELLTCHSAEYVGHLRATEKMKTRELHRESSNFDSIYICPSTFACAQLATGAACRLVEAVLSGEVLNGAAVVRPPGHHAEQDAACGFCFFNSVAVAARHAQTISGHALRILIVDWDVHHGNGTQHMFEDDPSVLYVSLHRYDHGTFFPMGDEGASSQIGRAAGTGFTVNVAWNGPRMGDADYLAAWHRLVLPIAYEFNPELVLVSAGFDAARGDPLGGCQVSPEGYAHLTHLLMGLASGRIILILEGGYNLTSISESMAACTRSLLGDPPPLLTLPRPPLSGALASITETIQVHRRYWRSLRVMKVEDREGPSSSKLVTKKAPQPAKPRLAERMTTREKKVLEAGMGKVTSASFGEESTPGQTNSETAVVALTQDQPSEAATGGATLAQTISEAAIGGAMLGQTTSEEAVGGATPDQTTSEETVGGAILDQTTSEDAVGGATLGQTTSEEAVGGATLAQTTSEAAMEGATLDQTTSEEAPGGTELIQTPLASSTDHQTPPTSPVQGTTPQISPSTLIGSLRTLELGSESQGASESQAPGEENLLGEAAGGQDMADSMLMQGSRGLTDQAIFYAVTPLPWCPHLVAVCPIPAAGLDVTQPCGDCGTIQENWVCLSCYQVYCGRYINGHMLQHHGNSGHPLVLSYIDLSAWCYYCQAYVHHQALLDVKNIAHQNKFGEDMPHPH
Experimental: as §1

[4] = biological target: HDAC1 (Homo sapiens, UniProt Q13547); experiment: as above; type: biochemical; details: 15 minutes preincubation; substrate acetyl-Gly-Ala-(N-acetyl-Lys)-AMC
Chain of HDAC1 (Q13547 whole entry, species assumed): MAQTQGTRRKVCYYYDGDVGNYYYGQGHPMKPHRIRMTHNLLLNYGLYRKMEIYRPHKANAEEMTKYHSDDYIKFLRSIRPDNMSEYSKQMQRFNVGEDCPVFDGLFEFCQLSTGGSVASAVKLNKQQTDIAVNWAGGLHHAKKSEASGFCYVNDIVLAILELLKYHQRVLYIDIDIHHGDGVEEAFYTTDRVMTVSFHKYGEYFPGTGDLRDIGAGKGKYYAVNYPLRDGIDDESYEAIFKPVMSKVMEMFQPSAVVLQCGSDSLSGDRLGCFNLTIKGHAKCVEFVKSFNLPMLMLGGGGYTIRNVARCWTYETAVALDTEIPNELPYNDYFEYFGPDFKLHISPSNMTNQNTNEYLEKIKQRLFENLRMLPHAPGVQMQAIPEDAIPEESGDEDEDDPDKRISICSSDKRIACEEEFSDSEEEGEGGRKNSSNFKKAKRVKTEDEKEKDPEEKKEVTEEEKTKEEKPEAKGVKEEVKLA
Experimental: as §1

Structure (SMILES): O=C(NO)c1ccc2ccn(CCOc3ccccc3)c2c1 [Compound 316, N-hydroxy-1-(2-phenoxyethyl)-1H-indole-6-carboxamide]
- GI50 [1]: 2800 nM
- IC50 [2]: < 1000 nM
- IC50 [3]: > 10 µM
- IC50 [4]: > 10 µM
